27 compounds from patent US7419984B2, “Pyrimidines and uses thereof” (Cell Therapeutics, Inc., priority 2002, dated 2008) can be followed below.

For this assay, the target named is T1, human LPAAT-β (Homo sapiens, UniProt O15120).
T1 construct: the full-length human LPAAT-β cDNA was amplified by PCR; poly-histidine tag (N); made in house; host or cells: Sf9 insect cells (baculovirus, pFastBac HTc); the membrane fraction was used as the enzyme
T1 sequence (O15120 24-278): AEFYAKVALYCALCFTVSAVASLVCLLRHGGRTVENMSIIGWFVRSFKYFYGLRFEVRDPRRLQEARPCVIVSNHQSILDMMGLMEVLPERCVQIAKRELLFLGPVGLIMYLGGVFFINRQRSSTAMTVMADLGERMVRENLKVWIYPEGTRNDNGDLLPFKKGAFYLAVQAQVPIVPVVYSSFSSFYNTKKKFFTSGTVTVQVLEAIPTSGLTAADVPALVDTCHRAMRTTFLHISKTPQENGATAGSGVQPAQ
Put plainly: LPAAT-β cell-free assay. Format: biochemical. Particulars: Sf9 cell membrane overexpressing recombinant LPAAT-β. From the text: For the construction of Baculovirus expression vectors, the full-length human LPAAT-β cDNA was amplified by PCR from the DNA template pCE9.LPAAT-β (West et al., DNA Cell Bid. 16.691-701 (1997)) using the primers 5′-[…] […] […] […]-3′ (olpb1F; SEQ ID NO:1) and 5′-[…] […] […]-3′ (olpb1R; SEQ ID NO:2). The ˜870 bp fragment generated was reamplified by PCR using the primers 5′ […] […] […] […] ATC-3′ (olpb2F; SEQ ID NO:3) and 5′-[…] […] […]-3′ (olpb1R; SEQ ID NO:2). The ˜890 bp fragment generated was then cleaved with Sal I and Xba I for insertion into pFastBac™ HTc vector (Life Technologies, Gaithersberg, M.d.) between the Sal I and Xba I sites for the generation of the plasmid pFB.LPAAT-β. This plasmid was then transformed into E. coli DH10Bac™ (Life Technologies, Gaithersberg, M.d.) for the generation of recombinant Bacmid DNA for transfection in HighFive (Invitrogen, San Diego, Calif.) or SF9 insect cells for the production of recombinant Baculovirus stocks using the protocol described in the Bac-to-Bac® Baculovirus Expression System (Life Technologies, Gaithersberg, M.d.), a eukaryotic expression system for generating recombinant baculovirus through site-specific transposition in E. coli. Viral stocks harvested from the transfected cells can then be used to infect fresh insect cells for the subsequence expression of LPAAT-β fusion protein with a poly-histidine tag and a myc-epitope near its N-terminus. The membrane fraction from these Sf9 cells would be the source of LPAAT enzyme.
For the preparation of membranes from Sf9 Cells, all steps are performed on ice or at 4° C. Sf9 cell pellets (˜10^8 cells) were thawed and resuspended in 1-2 ml of buffer A (20 mM Hepes, pH 7.5, 1 mM DTT, 1 mM EDTA, 20% w/v glycerol, 1 mM Benzamidine, 1 μg/ml soybean trypsin inhibitor (SBTI), 1 μug/ml pepstatin A) w/o DTT but with 1 mM Pefabloc. The cells were lysed by sonication using a Branson Sonifier at output=2, duty cycle=2, 10 pulses each at 10 s. with the tip of small sonicator probe submerged but not touching the walls. DTT was then added to 1 mM from a 1 M stock. The samples were centrifuged at 1500 rpm for 5 min. The low speed supernatant was saved and centrifuged (TLA 100.3 rotor, polycarbonate tubes, 2 ml/tube or 1.5 ml/tube minimum) at 100000×g for 1 hr. The high speed pellet was resuspend in Buffer A with a probe sonicator (10 pulses @ output #2 and duty cycle 20%) as a source of LPAAT enzyme.
LPAAT-β catalyzes the transfer of an acyl group from a donor such as acyl-CoA to LPA. The transfer of the acyl group from acyl-CoA to LPA leads to the release of free CoA, which can be reacted with the thiol reagent, 5,5′-dithiobis(2-nitrobenzoic acid) (DTNB). The reaction between DTNB and the free sulfhydryl group from CoA generates a yellow-colored product, 3-carboxylato-4-nitrothiophenolate (CNP), that absorbs at 413 nm. LPAAT-β derived from Sf9 cell membrane overexpressing LPAAT-β were resuspended in HEPES saline buffer (20 mM HEPES pH 7.5, 150 mM NaCl), 1 mg/ml BSA and 72 μl aliquots were distributed into 96-well microtiter plates. 8 μl of compound of interest at 200 μM dissolved in 100% DMSO was added into each well. […] of 1 mM 18:1-CoA and 1 mM sn-1-18:1 lysoPA was then added to each well to initiate the reaction and allowed to run at room temperature for 25 min. 100 μl of 1 mM DTNB in 100% ethanol was then added to each well to quench the reaction and for color development. The absorbance at 405 nm, measured using a spectrophotometer plate reader, is proportional to the activity of LPAAT-2 in the sample. This colorimetric assay was used for the high throughput screening of LPAAT inhibitors.
The radiometric assay was carried out in Sf9 cell membrane overexpressing LPAAT-β resuspended in HEPES-saline buffer, pH 7.5, 1 mg/ml BSA, 1 mM EDTA and 200 μM [^14C]18:1-CoA and 200 μM sn-1-18:1 lysoPA.

Molecules are shown by their SMILES.

With `CCOc1ccc(Cl)cc1-c1cc(Nc2ccc(COC(=O)CN)cc2)nc(N)n1` [Example 64, Amino acetic acid-4-[2-amino-6-(5-chloro-2-ethoxy-phenyl)-pyrimidin-4-ylamino]-benzyl ester], the IC50 (in general, the point on the concentration scale where inhibition reaches its midpoint) is 1500 nM.

Take `Nc1nc(Nc2ccc(Br)cc2)cc(-c2cc(Br)ccc2OCC(F)(F)F)n1` [Example 91, N*4*-(4-Bromo-phenyl)-6-[5-bromo-2-(2,2,2-trifluoro-ethoxy)-phenyl]-pyrimidine-2,4-diamine]: the IC50 was found to be 190 nM.

As for `CCc1ccc(Cl)cc1-c1cc(Nc2ccc(Cl)cc2)nc(N)n1` [Example 167, 6-(5-Chloro-2-ethyl-phenyl)-N*-4*-(4-chloro-phenyl)-pyrimidine-2,4-diamine], the IC50 was determined as 180 nM.

As for `CNC(=O)c1cc(Nc2cc(-c3cc(Br)ccc3C)nc(N)n2)ccc1Br` [Example 78, 5-[2-Amino-6-(5-bromo-2-methyl-phenyl)-pyrimidin-4-ylamino]-2-bromo-N-methyl-benzamide], the concentration for half-maximal inhibition (IC50) came to 210 nM.

`CCOc1ccc(Br)cc1-c1cc(Nc2ccc(C(=O)C(F)(F)F)cc2)nc(N)n1` [Example 131, 1-{4-[2-Amino-6-(5-bromo-2-ethoxy-phenyl)-pyrimidin-4-ylamino]-phenyl}-2,2,2-trifluoro-ethanone]: the IC50 was 12 nM.

On to `Nc1nc(Nc2ccc(CCO)cc2)cc(-c2cc(Cl)ccc2Cl)n1` [Example 48, 2-{4-[2-Amino-6-(2,5-dichloro-phenyl)-pyrimidin4-ylamino]-phenyl}-ethanol], for which the IC50 stood at 28 nM.

On to `COc1ccc(COc2ccc(Br)cc2-c2cc(Nc3ccc(Cl)cc3)nc(N)n2)cc1` [Example 185, 6-[5-Bromo-2-(4-methoxy-benzyloxy)-phenyl]-N*4*-(4-chloro-phenyl)-pyrimidine-2,4-diamine], for which the IC50 was found to be 4 nM.

As for `CCOc1ccc(Br)cc1-c1cc(Nc2ccc(CO)cc2)nc(N)n1` [Example 62, {4-[2-Amino-6-(5-bromo-2-ethoxy-phenyl)-pyrimidin4-ylamino]-phenyl}-methanol], the IC50 was 80 nM.

Take `CCOc1ccc(Br)cc1-c1cc(Nc2cnc3ccccc3c2)nc(N)n1` [Example 144, 6-(5-Bromo-2-ethoxy-phenyl)-N*4*-quinolin-3-yl-pyrimidine-2,4-diamine]: the IC50 is 460 nM.

As for `COc1ccc(Br)cc1-c1cc(Nc2ccc(C#N)cc2)nc(N)n1` [Example 160, 4-[2-Amino-6-(5-bromo-2-methoxy-phenyl)-pyrimidin4-ylamino]-benzonitrile], the IC50 worked out at 38 nM.

`N#Cc1ccc(Nc2cc(-c3cc(Cl)ccc3Cl)nc(N)n2)cc1` [Example 24, 4-[2-Amino-6-(2,5-dichloro-phenyl)-pyrimidin-4-ylamino]-benzonitrile]: the IC50 is 29 nM.

Turning to `Cc1ccc(Cl)cc1-c1cc(Nc2ccc(CO)cc2)nc(N)n1` [Example 33, {4-[2-Amino-6-(5-chloro-2-methyl-phenyl)-pyrimidin4-ylamino]-phenyl}-methanol], the IC50 stood at 95 nM.

Consider `Nc1nc(Nc2ccc(Cl)cc2)cc(-c2cc(Cl)ccc2OCc2ccccc2)n1` [Example 155, 6-(2-Benzyloxy-5-chloro-phenyl)-N*4*-(4-chloro-phenyl)-pyrimidine-2,4-diamine], for which the IC50 came out at 4 nM.

Turning to `Nc1nc(Nc2ccc(CCO)cc2)cc(-c2cc(Cl)ccc2OCc2ccccc2)n1` [Example 158, 2-[4-{2-Amino-6-(2-benzyloxy-5-chloro-phenyl)-pyrimidin4-ylamino]-phenyl}-ethanol], the IC50 is 16 nM.

`CC(=NO)c1ccc(Nc2cc(-c3cc(Cl)ccc3Cl)nc(N)n2)cc1` [Example 154, 1-{4-[2-Amino-6-(2,5-dichloro-phenyl)-pyrimidin-4-yl-amino]-phenyl}-ethanone oxime]: the concentration for half-maximal inhibition (IC50) stood at 98 nM.

On to `CCOc1ccc(Br)cc1-c1cc(Nc2ccc(C(N)=O)cc2)nc(N)n1` [Example 186, 4-[2-Amino-6-(5-bromo-2-ethoxy-phenyl)-pyrimidin4-ylamino]-benzamide], for which the half-inhibitory concentration (IC50) was 740 nM.

`COC(=O)c1ccc(Nc2cc(-c3cc(Cl)ccc3OC)nc(N)n2)cc1` [Example 9, 4-[2-Amino-6-(5-chloro-2-methoxy-phenyl)-pyrimidin-4-ylamino]-benzoic acid methyl ester]: the IC50 stood at 600 nM.

For `COc1ccc(Cl)cc1-c1nc(N)nc(Nc2ccc3cn[nH]c3c2)c1Br` [Example 52, 5-Bromo-6-(5-chloro-2-methoxy-phenyl)-N*4*-(1H-indazol-6-yl)-pyrimidine-2,4-diamine], the concentration for half-maximal inhibition (IC50) came to 500 nM.

As to `Nc1nc(Nc2ccc(Cl)cc2)cc(-c2cc(Br)ccc2OCCN2CCOCC2)n1` [Example 149, 6-[5-Bromo-2-(2-morpholin4-yl-ethoxy)-phenyl]-N*4*-(4-chloro-phenyl)-pyrimidine-2,4-diamine], the IC50 amounted to 71 nM.

For the compound `COc1ccccc1COc1ccc(Br)cc1-c1cc(Nc2ccc(Cl)cc2)nc(N)n1` [Example 182, 6-[5-Bromo-2-(2-methoxy-benzyloxy)-phenyl]-N*4*-(4-chloro-phenyl)-pyrimidine-2,4-diamine], the IC50 is 4 nM.

On to `CCOc1ccc(Cl)cc1-c1cc(Nc2ccc(S(N)(=O)=O)cc2)nc(N)n1` [Example 96, 4-[2-Amino-6-(5-chloro-2-ethoxy-phenyl)-pyrimidin-4-ylamino]-benzenesulfonamide], for which the IC50 is 73 nM.

On to `Cc1ccc(Br)cc1-c1cc(Nc2ccc(C(F)(F)F)cc2)nc(N)n1` [Example 82, 6-(S-Bromo-2-methyl-phenyl)-N*4*-(4-trifluoromethyl-phenyl)-pyrimidine-2,4-diamine], for which the IC50 came to 100 nM.

Consider `Cc1ccc(F)cc1-c1cc(Nc2ccc(C(F)(F)F)cc2)nc(N)n1` [Example 76, 6-(5-Fluoro-2-methyl-phenyl)-N*4*-(4-trifluoromethyl-phenyl)-pyrimidine-2,4-diamine], for which the IC50 came out at 710 nM.

Take `Cc1ccc(Cl)cc1-c1cc(Nc2ccc(CCCO)cc2)nc(N)n1` [Example 109, 3-{4-[2-Amino-6-(5-Chloro-2-methyl-phenyl)-pyrimidin-4-ylamino]-phenyl}-propan-1-ol]: the IC50 turned out to be 850 nM.

For `Nc1nc(Nc2ccc(Cl)cc2)cc(-c2cc(Cl)ccc2OCC(F)(F)F)n1` [Example 89, N*4*-(4-Chloro-phenyl)-6-[5-chloro-2-(2,2,2-trifluoro-ethoxy)-phenyl]-pyrimidine-2,4-diamine], the IC50 was determined as 100 nM.

Consider `CCOc1ccc(Cl)cc1-c1cc(N(C)c2ccc(Cl)cc2)nc(N)n1` [Example 122, 6-(5-chloro-2-ethoxyphenyl)-N*4*-(4-chlorophenyl)-N*4*-methylpyrimidine-2,4-diamine], for which the IC50 came out at 1200 nM.

For the compound `COc1ccc(Br)cc1-c1cc(Nc2ccc(C(F)(F)F)cc2)nc(N)n1` [Example 150, 6-(5-Bromo-2-methoxy-phenyl)-N*4*-(4-trifluoromethyl-phenyl)-pyrimidine-2,4-diamine], the IC50 was 100 nM.
